Measured values published in patent US12453759B2, “Di-thioester cationic lipids” (TRANSLATE BIO, INC., priority 2019, dated 2025).

Test system: hEPO protein expression
Test: In vivo expression of hEPO after IM injection of hEPO mRNA lipid nanoparticles (serum ELISA)
Conditions: LNP with hEPO mRNA, cationic lipid, DMG-PEG2000, cholesterol, DOPE, single IM injection into gastrocnemius, 0.1 ug, male BALB/c mice, FIG. 1
Procedure: Lipid nanoparticle formulations comprising human erythropoietin (hEPO) mRNA, a cationic Lipid, DMG-PEG2000, cholesterol and DOPE were administered intramuscularly to study mRNA delivery and resultant hEPO expression. Male BALB/c mice at 6-8 weeks old are given a single injection of the LNP formulations into the gastrocnemius muscle at a dosage level of 0.1 ug. Blood samples were collected at 6 and 24 hours post-dose. hEPO protein expression levels were measured in the sera samples by ELISA and presented in FIG. 1.

Compound	in vivo protein production (hEPO protein expression levels in sera) (6 hours after administration)	in vivo protein production (hEPO protein expression levels in sera) (24 hours after administration)
CCCCCCCCC(O)CN(CCSC(=O)[C@H]1CC[C@H](C(=O)SCCN(CC(O)CCCCCCCC)CC(O)CCCCCCCC)CC1)CC(O)CCCCCCCC (stereo partly drawn) [Compound 79]	high levels of in vivo protein production	–
CCCCCCCCCCC(O)CN(CCSC(=O)c1ccc(C(=O)SCCN(CC(O)CCCCCCCCCC)CC(O)CCCCCCCCCC)cc1)CC(O)CCCCCCCCCC (stereo not drawn) [Compound 98]	high levels of in vivo protein production	high levels of in vivo protein production
